Numbered stars: 1 amine (or outer) side, 2 acyl side, 3 side chain; on linkers, the order of the positions; unused ones are H or OH. Bridge positions count the residues as written; N and C are the ends. Square brackets hold non-standard residues; d marks the D form. Side chains are listed from the residue outwards. Peptide text beside a SMILES is read from it. * marks the point of attachment. C20 diacid = O=C(O)CCCCCCCCCCCCCCCCCCC(=O)*; γGlu = O=C(O)[C@H](CCC(=O)[*:2])N[*:1]; Hyp = O=C(O)[C@@H]1C[C@@H](O)CN1; Cit = NC(=O)NCCC[C@H](N)C(=O)O; AEEA = NCCOCCOCC(=O)O

EC50 data for five compounds are collected here from patent US12139520B2 (priority 2020, dated 2024).

The target of one experiment is T1, hAMY3 receptor (Homo sapiens, UniProt O60896+P30988).
T1 sequence (P30988 25-474): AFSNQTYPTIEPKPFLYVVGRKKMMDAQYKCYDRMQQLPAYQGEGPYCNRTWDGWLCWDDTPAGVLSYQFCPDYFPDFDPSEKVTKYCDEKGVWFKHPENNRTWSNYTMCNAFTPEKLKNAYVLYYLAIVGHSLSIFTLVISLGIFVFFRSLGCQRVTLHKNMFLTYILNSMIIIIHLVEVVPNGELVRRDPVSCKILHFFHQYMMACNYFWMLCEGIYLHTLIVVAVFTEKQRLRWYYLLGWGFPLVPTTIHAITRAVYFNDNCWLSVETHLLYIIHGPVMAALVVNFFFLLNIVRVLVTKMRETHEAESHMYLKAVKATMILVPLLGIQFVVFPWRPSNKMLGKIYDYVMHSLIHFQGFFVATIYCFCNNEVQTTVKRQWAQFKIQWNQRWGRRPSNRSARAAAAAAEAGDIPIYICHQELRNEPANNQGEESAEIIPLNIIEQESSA
T1 sequence (O60896 24-148 partner): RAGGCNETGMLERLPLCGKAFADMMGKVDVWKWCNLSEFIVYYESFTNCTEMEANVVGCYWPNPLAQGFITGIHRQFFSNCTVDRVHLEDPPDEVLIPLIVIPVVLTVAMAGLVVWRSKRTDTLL
In words: cAMP assay for in vitro receptor activation, hAMY3-R. The format is cell-based. As to conditions: cAMP assay, hAMY3 receptor; read-out: hAMY3R EC50. In outline:
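Monoclonal cell line stably overexpressing human AMY3 receptor, 2000 cells/well in DPBS with 0.05% casein and 0.5 mM IBMX. Stimulated 30 min at room temperature with graded compound doses, human amylin as positive control. cAMP accumulation read by TR-FRET after one hour.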
On the technique in general: Cyclic AMP is a second messenger, typically raised through Gs and lowered through Gi signalling.

A further experiment deals with hAM1 receptor (Homo sapiens, UniProt O60895+Q16602). In words: cAMP assay for in vitro receptor activation, hAM1-R. Type of experiment: cell-based. The conditions noted are these: cAMP assay, hAM1 receptor; read-out: hAM1R EC50. The method in brief: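 Receptor activation, read as cAMP, was assessed in thawed cells of a monoclonal hAM1-overexpressing stable line, plated at 8000 cells/well in DPBS supplemented with 0.05% casein and 0.5 mM IBMX.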
Chain of hAM1 receptor (Q16602 23-461): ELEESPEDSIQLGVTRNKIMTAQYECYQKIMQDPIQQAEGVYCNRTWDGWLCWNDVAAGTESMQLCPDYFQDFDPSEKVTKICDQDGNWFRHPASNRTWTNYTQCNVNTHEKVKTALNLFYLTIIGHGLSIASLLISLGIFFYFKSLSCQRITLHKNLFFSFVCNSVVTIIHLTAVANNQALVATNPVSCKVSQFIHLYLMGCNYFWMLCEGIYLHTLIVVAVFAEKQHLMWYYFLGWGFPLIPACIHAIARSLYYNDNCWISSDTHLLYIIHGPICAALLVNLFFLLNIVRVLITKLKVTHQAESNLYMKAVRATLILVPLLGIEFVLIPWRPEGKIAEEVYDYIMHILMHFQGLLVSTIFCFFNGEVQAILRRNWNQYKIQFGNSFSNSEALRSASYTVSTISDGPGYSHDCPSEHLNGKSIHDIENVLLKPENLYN
Chain of hAM1 receptor (O60895 43-175 partner): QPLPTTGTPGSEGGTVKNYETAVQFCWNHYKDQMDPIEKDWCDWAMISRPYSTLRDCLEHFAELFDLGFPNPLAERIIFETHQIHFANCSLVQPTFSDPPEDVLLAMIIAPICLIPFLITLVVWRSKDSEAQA

Turning to `CC[C@H](C)[C@H](NC(=O)[C@H](CCC(N)=O)NC(=O)[C@H](CCC(=O)O)NC(=O)[C@H](C)NC(=O)[C@H](CC(C)C)NC(=O)[C@H](CCCNC(N)=O)NC(=O)[C@H](C)NC(=O)[C@@H](NC(=O)[C@@H](NC(=O)[C@@H]1CSSC[C@H](NC(=O)[C@@H](N)CCCNC(=N)N)C(=O)N[C@@H](CCC(N)=O)C(=O)N[C@@H](C)C(=O)N[C@@H](CO)C(=O)N[C@@H]([C@@H](C)O)C(=O)N1)[C@@H](C)O)C(C)C)C(=O)N[C@@H](C)C(=O)N[C@@H](CCC(N)=O)C(=O)N[C@@H](Cc1ccc(O)cc1)C(=O)N[C@H](C(=O)N[C@@H](CC(=O)O)C(=O)N[C@@H](CCCCN)C(=O)N[C@@H](CC(=O)O)C(=O)N[C@@H](CCCCN)C(=O)N[C@@H](CC(=O)O)C(=O)N[C@@H](CCC(N)=O)C(=O)N[C@H](C(=O)N[C@@H](C)C(=O)N1CCC[C@H]1C(=O)N1CCC[C@H]1C(=O)N[C@H](C(=O)N[C@@H](CCC(=O)O)C(=O)N[C@H](C(=O)NCC(=O)N1CCC[C@H]1C(=O)N[C@@H](CC(N)=O)C(=O)N[C@@H](CO)C(=O)N1C[C@H](O)C[C@H]1C(N)=O)C(C)C)[C@@H](C)O)C(C)C)[C@@H](C)O` [compound 33] (H-RCQASTCTVA[Cit]LAEQIAQYTDKDKDQVAPPTEVGPNS[Hyp]-NH2; disulfide 2-7; N-terminus assumed), the EC50 (usually the concentration needed to bring the measured effect to its halfway point) is 0.008 nM at hAMY3 receptor and more than 5000 nM on hAM1 receptor.

For `CC[C@H](C)[C@H](NC(=O)[C@H](CCC(N)=O)NC(=O)[C@H](CCC(=O)O)NC(=O)[C@H](C)NC(=O)[C@H](CC(C)C)NC(=O)[C@H](CCCNC(=N)N)NC(=O)[C@H](CCC(N)=O)NC(=O)[C@@H](NC(=O)[C@@H](NC(=O)[C@@H]1CSSC[C@H](NC(=O)[C@@H](N)CCCCN)C(=O)N[C@@H](CC(N)=O)C(=O)N[C@@H]([C@@H](C)O)C(=O)N[C@@H](C)C(=O)N[C@@H]([C@@H](C)O)C(=O)N1)[C@@H](C)O)C(C)C)C(=O)N[C@@H](Cc1ccc(O)cc1)C(=O)N[C@@H](CCC(N)=O)C(=O)N[C@@H](Cc1ccccc1)C(=O)N[C@@H](CCCCNC(=O)COCCOCCNC(=O)COCCOCCNC(=O)CC[C@H](NC(=O)CCCCCCCCCCCCCCCCCCC(=O)O)C(=O)O)C(=O)N[C@@H](CC(=O)O)C(=O)N[C@@H](CCCCN)C(=O)N[C@@H](CC(=O)O)C(=O)N[C@@H](CCCCN)C(=O)N[C@@H](CC(=O)O)C(=O)N[C@@H](CC(N)=O)C(=O)N[C@H](C(=O)N[C@@H](C)C(=O)N1CCC[C@H]1C(=O)N1CCC[C@H]1C(=O)N[C@H](C(=O)N[C@@H](CC(N)=O)C(=O)N[C@H](C(=O)NCC(=O)N[C@@H](CO)C(=O)N[C@@H](CC(N)=O)C(=O)NCC(=O)N1C[C@H](O)C[C@H]1C(N)=O)C(C)C)[C@@H](C)O)C(C)C` [compound 89] (H-KCNTATCTVQRLAEQIYQFK([AEEA-AEEA-γGlu-C20 diacid])DKDKDNVAPPTNVGSNG[Hyp]-NH2; disulfide 2-7; N-terminus assumed), the EC50 on hAMY3 receptor was 0.015 nM; at hAM1 receptor it was more than 5000 nM.

On to `CC[C@H](C)[C@H](NC(=O)[C@H](CCC(N)=O)NC(=O)[C@H](CCC(=O)O)NC(=O)[C@H](C)NC(=O)[C@H](CC(C)C)NC(=O)[C@H](CCCNC(=N)N)NC(=O)[C@H](CCC(N)=O)NC(=O)[C@@H](NC(=O)[C@@H](NC(=O)[C@@H]1CSSC[C@H](NC(=O)[C@H](CCCCN)NC(=O)CC[C@H](NC(=O)CCCCCCCCCCCCCCCCCCC(=O)O)C(=O)O)C(=O)N[C@@H](CC(N)=O)C(=O)N[C@@H]([C@@H](C)O)C(=O)N[C@@H](C)C(=O)N[C@@H]([C@@H](C)O)C(=O)N1)[C@@H](C)O)C(C)C)C(=O)N[C@@H](C)C(=O)N[C@@H](CCC(N)=O)C(=O)N[C@@H](Cc1ccccc1)C(=O)N[C@H](C(=O)N[C@@H](CC(=O)O)C(=O)N[C@@H](CCCCN)C(=O)N[C@@H](CC(=O)O)C(=O)N[C@@H](CCCCN)C(=O)N[C@@H](CC(=O)O)C(=O)N1CCC[C@H]1C(=O)N[C@H](C(=O)N[C@@H](C)C(=O)N1CCC[C@H]1C(=O)N1CCC[C@H]1C(=O)N[C@H](C(=O)N[C@@H](CC(N)=O)C(=O)N[C@H](C(=O)NCC(=O)N[C@@H](CO)C(=O)N[C@@H](CC(N)=O)C(=O)NCC(=O)N1C[C@H](O)C[C@H]1C(N)=O)C(C)C)[C@@H](C)O)C(C)C)[C@@H](C)O` [compound 144] ({C20 diacid-γGlu}-KCNTATCTVQRLAEQIAQFTDKDKDPVAPPTNVGSNG[Hyp]-NH2; disulfide 2-7), for which the EC50 was 0.038 nM at hAMY3 receptor and more than 5000 nM on hAM1 receptor.

Take `CC[C@H](C)[C@H](NC(=O)[C@H](CCC(N)=O)NC(=O)[C@H](Cc1c[nH]cn1)NC(=O)[C@H](C)NC(=O)[C@H](CC(C)C)NC(=O)[C@H](CCCNC(=N)N)NC(=O)[C@H](C)NC(=O)[C@@H](NC(=O)[C@@H](NC(=O)[C@@H]1CSSC[C@H](NC(=O)[C@H](CCCCN)NC(=O)CC[C@H](NC(=O)CCCCCCCCCCCCCCCCCCC(=O)O)C(=O)O)C(=O)N[C@@H](CC(N)=O)C(=O)N[C@@H]([C@@H](C)O)C(=O)N[C@@H](C)C(=O)N[C@@H]([C@@H](C)O)C(=O)N1)[C@@H](C)O)C(C)C)C(=O)N[C@@H](Cc1ccc(O)cc1)C(=O)N[C@@H](CCC(N)=O)C(=O)N[C@@H](Cc1ccccc1)C(=O)N[C@H](C(=O)N[C@@H](CC(=O)O)C(=O)N[C@@H](CCCCN)C(=O)N[C@@H](CC(=O)O)C(=O)N[C@@H](CCCCN)C(=O)N[C@@H](CC(=O)O)C(=O)N[C@@H](CC(N)=O)C(=O)N[C@H](C(=O)N[C@@H](C)C(=O)N1CCC[C@H]1C(=O)N1CCC[C@H]1C(=O)N[C@H](C(=O)N[C@@H](CC(N)=O)C(=O)N[C@H](C(=O)NCC(=O)N[C@@H](CO)C(=O)N[C@@H](CC(N)=O)C(=O)NCC(=O)N1C[C@H](O)C[C@H]1C(N)=O)C(C)C)[C@@H](C)O)C(C)C)[C@@H](C)O` [compound 37] ({C20 diacid-γGlu}-KCNTATCTVARLAHQIYQFTDKDKDNVAPPTNVGSNG[Hyp]-NH2; disulfide 2-7): the EC50 at hAMY3 receptor is 0.01 nM; on hAM1 receptor, more than 5000 nM.

Turning to `CC[C@H](C)[C@H](NC(=O)[C@H](CCC(N)=O)NC(=O)[C@H](CCC(=O)O)NC(=O)[C@H](C)NC(=O)[C@H](CC(C)C)NC(=O)[C@H](CCCNC(=N)N)NC(=O)[C@H](CCC(N)=O)NC(=O)[C@@H](NC(=O)[C@@H](NC(=O)[C@@H]1CSSC[C@H](NC(=O)[C@@H](N)CCCCN)C(=O)N[C@@H](CC(N)=O)C(=O)N[C@@H]([C@@H](C)O)C(=O)N[C@@H](C)C(=O)N[C@@H]([C@@H](C)O)C(=O)N1)[C@@H](C)O)C(C)C)C(=O)N[C@@H](CCCCNC(=O)COCCOCCNC(=O)COCCOCCNC(=O)CC[C@H](NC(=O)CCCCCCCCCCCCCCCCCCC(=O)O)C(=O)O)C(=O)N[C@@H](CCC(N)=O)C(=O)N[C@@H](Cc1ccccc1)C(=O)N[C@H](C(=O)N[C@@H](CC(=O)O)C(=O)N[C@@H](CCCCN)C(=O)N[C@@H](CC(=O)O)C(=O)N[C@@H](CCCCN)C(=O)N[C@@H](CC(=O)O)C(=O)N[C@@H](CC(N)=O)C(=O)N[C@H](C(=O)N[C@@H](C)C(=O)N1CCC[C@H]1C(=O)N1CCC[C@H]1C(=O)N[C@H](C(=O)N[C@@H](CC(N)=O)C(=O)N[C@H](C(=O)NCC(=O)N[C@@H](CO)C(=O)N[C@@H](CC(N)=O)C(=O)NCC(=O)N1C[C@H](O)C[C@H]1C(N)=O)C(C)C)[C@@H](C)O)C(C)C)[C@@H](C)O` [compound 136] (H-KCNTATCTVQRLAEQIK([AEEA-AEEA-γGlu-C20 diacid])QFTDKDKDNVAPPTNVGSNG[Hyp]-NH2; disulfide 2-7; N-terminus assumed), the results for the EC50 on hAMY3 receptor and on hAM1 receptor were 0.033 nM and more than 5000 nM, respectively.
